≈ marks a conversion by molar mass, not a printed value. Where two headings read alike, the source gives them in different places.
What was measured:
[1] = system: HL60/S cells; assay: Cytotoxicity of oncolytics in sensitive HL60/S cells; type: cell-based; settings: Homo sapiens, HL-60
From the text: (§1) See Marquardt, D., McCrone, S., and Center M. S., Cancer Res., 50: 1426, (1990). The mechanism(s) utilized by P190 to confer resistance to Adriamycin is not well understood but may involve the intracellular redistribution of Adriamycin away from the nucleus. See Marquardt, D. and Center, M. S., supra. Adriamycin is an inhibitor of topoisomerase II (Beck, W. T., Bull. Cancer, 77: 1131, (1990), which is an enzyme involved in DNA replication. Redistribution of Adriamycin away from the nucleus would therefore be an important component in cellular resistance to this drug. The studies published to date on P190 have utilized cell lines selected in vitro for resistance to Adriamycin (McGrath, T., Latoud, C., Arnold, S. T., Safa, A. R., Felsted, R. S., and Center, M. S., supra; Marquardt, D. and Center, M. S., supra; and Marquardt, D., McCrone, S., and Center M. S. Cancer Res., supra. The association of MRP (P190) with drug resistance was made by sodium dodecyl sulfate polyacrylamide gel electrophoresis (SDS-PAGE) of radioactive extracts prepared from Adriamycin-resistant HL60/Adr human leukemia cells labeled with 8-azido-alpha[^32P]ATP. See McGrath, T., Latoud, C., Arnold, S. T., Safa, A. R., Felsted, R. S., and Center, M. S., supra. The drug-resistance phenotype conferred by P190 is not limited to the anthracyclines. Epipodophyllotoxin resistance is linked to P190 expression. […]

[2] = system: HL60/ADR cells; assay: Cytotoxicity of oncolytics in doxorubicin-resistant HL60/Adr cells; type: cell-based; settings: Homo sapiens
From the text: as §1

[3] = target: T1, MRP (Homo sapiens, UniProt P33527); assay: ATP-dependent transport of [3H]etoposide glucuronide / [3H]etoposide into membrane vesicles from MRP-overexpressing cells; settings: direct transport measurement in membrane vesicles
From the text: FIG. 5, Panel A illustrates the ATP-dependent transport of [^3H]etoposide glucuronide into membrane vesicles from MRP-overexpressing cells. Panel B provides a comparison of MRP-mediated ATP-dependent transport of [^3H]etoposide glucuronide and [^3H]etoposide into membrane vesicles from MRP-overexpressing cells.

[4] = target: T1, MRP; assay: ATP-dependent transport into membrane vesicles of MRP-overexpressing HL60/ADR cells; type: biochemical; set-up: HL60/ADR cells (human leukemia cells grown in adriamycin and overexpressing MRP); endogenous in cells; host or cells: HL60/ADR (Adriamycin-selected human HL60 leukemia cells), plasma membrane vesicles
Protocol: (§2) HL60/ADR cells (human leukemia cells grown in adriamycin and overexpressing MRP), revertant HL60 cells, and parental HL60 cells, respectively, were harvested by centrifugation after cultivation in cell culture and plasma membrane vesicles were prepared according to standard methods. Briefly, the cells were lysed by incubation in hypotonic buffer (0.5 mM sodium phosphate (pH 7.0), 0.1 mM EDTA supplemented with protease inhibitors) for 1.5 hours, followed by homogenization in a homogenizer. After centrifugation of the homogenate at 12,000×g(4° C., 10 minutes), the supernatant was centrifuged at 100,000×g at 4° C. for 45 minutes. […] After centrifugation at 280,000×g at 4° C. for 2 hours, the interphase was collected, washed by centrifugation in incubation buffer (100,000×g) and passed 20 times through a 27-gauge needle.
Membrane vesicles (50 μg of protein) were incubated in the presence of 4 mM ATP, 10 mM MgCl2, 10 mM of creatine phosphate, and the labeled substrate in an incubation buffer containing 250 mM sucrose and 10 mM Tris-HCl, pH 7.4. The final volume was 110 μl. Aliquots of 20 μl were taken at predetermined times and diluted in 1 ml of ice-cold incubation buffer. The dilute samples were filtered immediately through a nitrocellulose membrane (0.2 μm pore size), presoaked in incubation buffer using a rapid filtration device and rinsed twice with 5 ml incubation buffer. The filters were immersed in liquid and measured in a liquid scintillation counter. ATP was replaced by an equal concentration of 5′-AMP in a control experiment. All rates of the ATP-dependent transport were obtained by subtracting the values obtained in the presence of 5′-AMP from those measured in the presence of ATP.

[5] = system: membrane vesicles of parental and revertant HL60 cells; assay: ATP-dependent transport into membrane vesicles of parental and revertant HL60 cells (low MRP expression); type: biochemical, human; settings: substrate 5 μM
Protocol: as §2
Membrane vesicles (50 μg of protein) were incubated in the presence of 4 mM ATP, 10 mM MgCl2, 10 mM of creatine phosphate, and the labeled substrate in an incubation buffer containing 250 mM sucrose and 10 mM Tris-HCl, pH 7.4. The final volume was 110 μl. […] The filters were immersed in liquid and measured in a liquid scintillation counter. […] All rates of the ATP-dependent transport were obtained by subtracting the values obtained in the presence of 5′-AMP from those measured in the presence of ATP.

T1 sequence (P33527 whole entry): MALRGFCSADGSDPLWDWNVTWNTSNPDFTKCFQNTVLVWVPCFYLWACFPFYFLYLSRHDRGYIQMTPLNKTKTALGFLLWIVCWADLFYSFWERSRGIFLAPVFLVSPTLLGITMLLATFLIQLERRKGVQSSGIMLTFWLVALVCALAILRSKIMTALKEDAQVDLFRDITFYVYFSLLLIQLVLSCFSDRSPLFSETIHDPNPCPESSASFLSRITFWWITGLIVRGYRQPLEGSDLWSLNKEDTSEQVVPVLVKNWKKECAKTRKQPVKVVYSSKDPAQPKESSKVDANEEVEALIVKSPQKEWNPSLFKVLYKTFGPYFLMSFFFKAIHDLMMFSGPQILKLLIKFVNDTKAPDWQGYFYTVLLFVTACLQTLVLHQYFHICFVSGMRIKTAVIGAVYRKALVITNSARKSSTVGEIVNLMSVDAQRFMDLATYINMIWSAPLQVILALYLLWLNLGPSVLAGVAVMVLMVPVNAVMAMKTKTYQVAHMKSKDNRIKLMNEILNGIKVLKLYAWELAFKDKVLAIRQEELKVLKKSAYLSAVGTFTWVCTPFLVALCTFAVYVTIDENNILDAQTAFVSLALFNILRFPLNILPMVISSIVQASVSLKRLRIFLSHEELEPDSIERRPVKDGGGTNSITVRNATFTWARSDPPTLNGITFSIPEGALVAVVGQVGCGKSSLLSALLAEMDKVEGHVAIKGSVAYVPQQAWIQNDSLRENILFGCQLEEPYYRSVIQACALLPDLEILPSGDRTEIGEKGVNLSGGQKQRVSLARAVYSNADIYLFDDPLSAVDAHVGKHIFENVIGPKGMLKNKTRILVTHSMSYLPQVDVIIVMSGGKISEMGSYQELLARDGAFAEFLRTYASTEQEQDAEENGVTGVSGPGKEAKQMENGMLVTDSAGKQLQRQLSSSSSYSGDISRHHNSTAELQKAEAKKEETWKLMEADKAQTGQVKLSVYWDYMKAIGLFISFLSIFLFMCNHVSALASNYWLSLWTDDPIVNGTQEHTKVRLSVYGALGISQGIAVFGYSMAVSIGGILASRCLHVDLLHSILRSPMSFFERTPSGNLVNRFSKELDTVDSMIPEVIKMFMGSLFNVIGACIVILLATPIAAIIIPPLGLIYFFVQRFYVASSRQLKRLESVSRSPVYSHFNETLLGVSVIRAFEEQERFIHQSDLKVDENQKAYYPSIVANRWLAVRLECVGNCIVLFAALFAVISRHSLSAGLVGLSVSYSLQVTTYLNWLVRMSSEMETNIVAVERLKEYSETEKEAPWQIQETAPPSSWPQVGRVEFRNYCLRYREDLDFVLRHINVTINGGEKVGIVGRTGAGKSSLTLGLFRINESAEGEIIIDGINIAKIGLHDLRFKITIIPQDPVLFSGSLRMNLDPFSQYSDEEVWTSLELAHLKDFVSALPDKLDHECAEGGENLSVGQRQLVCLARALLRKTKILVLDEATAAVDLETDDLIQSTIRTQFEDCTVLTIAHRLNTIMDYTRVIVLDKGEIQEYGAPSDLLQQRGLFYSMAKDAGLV

substrate for MRP [3] | substrate for the MRP protein [4] | SMILES | IC50 [1] [µg/mL] | also measured
 | substrates | CCCCC/C=C\C\C=C/C=C/C=C/[C@@H](SC[C@H](N)C(=O)NCC(=O)O)[C@@H](O)CCCC(=O)O [LTD4] |  | 
 | substrates | CCCCC/C=C\C\C=C/C=C/C=C/[C@@H](SC[C@H](N)C(=O)O)[C@@H](O)CCCC(=O)O [LTE4] |  | 

Second part, the compound before the results:

SMILES | substrate for MRP [3] | substrate for the MRP protein [4] | IC50 [1] [µg/mL] | also measured
COc1cccc2c1C(=O)c1c(O)c3c(c(O)c1C2=O)C[C@@](O)(C(=O)CO)C[C@@H]3O[C@H]1C[C@H](N)[C@H](O)[C@H](C)O1 [Adriamycin, Doxorubicin] |  |  | 0.011 (≈ 0.0202 µM) | IC50 ([2]; HL60/ADR): 2.2 µg/mL (≈ 4.05 µM)
COc1cc([C@@H]2c3cc4c(cc3[C@@H](O[C@@H]3O[C@@H]5CO[C@@H](C)O[C@H]5[C@H](O)[C@H]3O)[C@H]3COC(=O)[C@H]23)OCO4)cc(OC)c1O [Etoposide] | not a substrate for MRP |  | 0.39 (≈ 0.663 µM) | IC50 ([2]; HL60/Adr cells (express P190), read-out: IC50): > 10 µg/mL
N[C@@H](CCC(=O)N[C@@H](CSc1ccc([N+](=O)[O-])cc1[N+](=O)[O-])C(=O)NCC(=O)O)C(=O)O [S-(2,4-dinitrophenyl-[^3H]glutathione, S-(2,4-dinitrophenyl)-[^3H]glutathione] |  |  |  | transport rate compared with HL60/ADR membranes [5]: 10 times less; rate of ATP-dependent transport ([4]; substrate 5 μM, HL60/ADR membranes): 50+4 pmol×mg protein^−1×min^−1
COc1cc([C@@H]2c3cc4c(cc3[C@@H](O[C@@H]3O[C@@H]5CO[C@@H](C)O[C@H]5[C@H](O)[C@H]3O)[C@H]3COC(=O)[C@H]23)OCO4)cc(OC)c1O[C@@H]1O[C@H](C(=O)O)[C@@H](O)[C@H](O)[C@H]1O [etoposide glucuronide] | mediated by MRP |  |  | 

Reference: US6673813B2, “Methods for identifying and treating resistant tumors” (priority 1994, dated 2004)
